Earlier results as cited in US12478681B2, “Non-activated, amorphous, pH neutral, two-part bedside-ready clay delivery system that treats pathogen infections in humans and animals” (priority 2019, dated 2025).

In the case of elemental iron, the “Oral dose that can cause severe toxicity, morbidity and mortality” value is listed as > 60 mg/kg, the “Oral dose that can have toxicity symptoms” value is listed as 20 to 60 mg/kg and the “Oral dose that is non-toxic” value is listed as < 20 mg/kg.
